Literature values in patent US20100247673A1, “Thyroid protection in sickle cell anemia treatment” (priority 2009, published 2010).

System: erythrocytes
Settings: about 4 mols incorporated per mol of hemoglobin tetramer

## N#C[O-].[K+] [potassium cyanate]
  erythrocytes prevented from sickling: up to 80%
